From US8829014B2, “Thiazole and thiophene analogues, and their use in treating autoimmune diseases and cancers” (Board of Supervisors of Louisiana State University and …, priority 2006, dated 2014)
Marks after values point to notes of the source that are not given here.

How the values were obtained:
Type in all cases: cell-based
[1] = system: Human umbilical vein endothelial cells (HUVEC); assay: LDH release cytotoxicity in HUVEC; conditions: human, 48 h, 10 μM
Experimental: (§1) Additional compounds have also been tested for their ability to inhibit both TNF-α-induced NF-κB—expression and PMA-induced AP-1 expression. In both tests, the compound was added for 1 h, then the appropriate inducer was added, and luciferase activity was monitored 24 h later. Values were then normalized to the vehicle control, DMSO. Following the initial luciferase screens, studies were conducted to assess the cytotoxicity of the compounds in normal cells such as VSMC, HUVEC, or HPT cells. Human umbilical vein endothelial cells (HUVEC) represent the normal endothelium, vascular smooth muscle cells (VSMC) were represented by cells from the adult rat aorta, and human proximal tubule (HPT) cells represent the normal proximal tubule in vivo. These cells were grown to near confluency in multi-well plates, and were then treated for 48 h with either vehicle (0.1% DMSO) or 10 μM of each drug candidate. Following treatment, the media from the VSMC and HUVEC incubations were removed, and the amount of lactate dehydrogenase (LDH) released into the medium was determined with a commercial kit. LDH is normally confined to the cytosol, and its release represents “leakiness” of the plasma membrane. LDH activity was expressed as % increase over vehicle-treated cells. In another assay of viability, the treated VSMC and HUVEC were removed by trypsinization and treated with trypan blue, a dye that is taken up only by dead cells. The number of both live and dead cells was counted using an automated cell viability analyzer. The % decrease in numbers of viable cells was determined. Toxicity in the treated HPT cells was determined by the ethidium homodimer (EthHD) uptake assay. EthHD is a fluorescent dye that is excluded from live cells, but is taken up by cells that have lost permeability barriers. Inside the cell, EthHD produces a strong fluorescent signal, which is proportional to the number of dead cells. Results were expressed as a % increase in cell death over vehicle-treated cells. The lead compounds were also tested in two pairs of cell lines from either the skin or prostate, one tumorigenic and one non-tumorigenic, to test for any differences in toxicity or heightened sensitivity in the tumorigenic lines. The cells were treated for 48 h with vehicle (0.1% DMSO) or 10 μM of each drug candidate. Following treatment, the viability of the cells was determined by the MTT assay. In this assay, the MTT dye is converted only in viable cells by intracellular enzymes to a colorimetric product that is quantitated by a microplate reader.
For the results in Table 13, cells were grown to near confluency in multi-well plates, then treated for 48 h with either vehicle (0.1% DMSO) or 10 μM of each drug candidate. Following treatment, the media from the VSMC and HUVEC incubations were removed, and the amount of lactate dehydrogenase (LDH) released into the medium was determined with a commercial kit and expressed as a % increase over vehicle-treated cells. HPT toxicity was determined by the ethidium homodimer (EthHD) uptake assay. Inside the cell, EthHD produces a strong fluorescent signal, which is proportional to the amount of cell death, expressed as a % increase in cell death over vehicle-treated cells. The lead compounds were also tested in two pairs of cell lines from the skin or prostate, one tumorigenic and one non-tumorigenic, to test for differing toxicity or heightened sensitivity in the tumorigenic lines. The cells were treated for 48 h with vehicle (0.1% DMSO) or 10 μM of each drug candidate, and the viability of the cells was determined by the MTT assay, expressed as a % decrease in viability compared to vehicle-treated cells. The in vivo inflammation model measured the % inhibition of rat paw edema induced by carageenan injection.

[2] = system: Human umbilical vein endothelial cells (HUVEC); assay: Trypan blue viability count in HUVEC; conditions: human, 48 h, 10 μM
Experimental: as §1

ARE from TNF-α = assay: ARE screen: luciferase under post-transcriptional control of the ARE from TNF-α in RAW 264.7 cells; conditions: six concentrations 10 nM-3300 nM, 24 hr (FIG. 10)
Source text: Development of ARE Screen: The regulation of TNF-α and other cytokines that are involved in inflammation and cancer progression occurs, in part, at the post-transcriptional level through an AU-rich element in the 3′ UTR called ARE. The ARE regulates both the stability and the translational efficiency of the mRNA and thus represents a potential target for novel anti-inflammatory molecules. The 3′ UTR from TNF-α, which contains the ARE, was cloned in the proper orientation and used to screen a compound library as reported in reference 55. Briefly, the 3′ UTR was cloned into pMS 110, and both the UTR and parental plasmids were stably transfected into RAW264.7 cells, a macrophage cell line. Individual clones were propagated and tested for luciferase activity. […] The UTR-containing clones responded to LPS by inducing luciferase expression similar to the endogenous increase in TNF-α following LPS stimulation. […] Thus, molecules identified with this screening assay are also useful as anti-cancer agents. By analogy, thalidomide, which has been reported to work in part through posttranscriptional regulation of TNF-α, has been approved for the treatment of multiple myeloma and is now in development for the treatment of cancers.
As in the eIF4E assay, AREs are responsible for post-transcriptional regulation of gene expression, influencing both translation and mRNA stability. […]

FaDu cells = system: FaDu cells
Source text: […]. Values greater than 1.0 indicate activation, and values less than 1.0 indicate inhibition.) The compounds that inhibited luciferase translation might, potentially, act by generally inhibiting translation, by reducing cell numbers through inhibition of growth or by cell toxicity, or specifically by inhibiting highly cap-dependent translation. To analyze any general effects on cell viability, fourteen compounds were selected that altered luciferase activity (including a few that increased activity) to test for any effects on cell number. An MTT assay was used to monitor compounds for inhibition of cell growth and cell toxicity. The compounds were tested once in a six-point dose-response assay starting at 10 nM and increasing to 3.3 μM. FaDu cells were plated in a 96-well plate for 24 hr before addition of the compounds. Each compound was added in each of six concentrations (10 nM, 30 nM, 100 nM, 330 nM, 1000 nM, and 3300 nM), and each concentration was tested in triplicate. In addition, DMSO was used as a control. After incubating for 24 hr, the cell number was measured using the MTT assay.

In the case of `CNc1nc(C)c(-c2nc3ccccc3c(=O)n2-c2ccc(Cl)cc2)s1` [Example 244, 2-(4-Methyl-2-methylamino-thiazol-5-yl)-3-(4-chloro-phenyl)-3H-quinazolin-4-one], the “LDH release % Increase HUVEC” value [1] is reported as 124# % and the “Viable Cells % Decrease HUVEC” value [2] is reported as 63# %.
In the case of `COc1ccc(-n2c(-c3sc(Nc4ccc(Cl)cc4)nc3-c3ccccc3)nc3ccccc3c2=O)cc1` [Example 225, 2-[2-(4-Chloro-phenylamino)-4-phenyl-thiazol-5-yl]-3-(4-methoxyphenyl)-3H-quinazolin-4-one], the “luciferase expression in the presence of ARE” value (ARE from TNF-α) is reported as “substantial dose response”.
With “Bis-[2-(4-Chloro-phenylamino)-4-benzayl-thiazole-5-yl]-methanone [Example 134]” the “inhibition of cell viability” value (FaDu cells) was ~20%.
